# PMC5484114 (Marine Drugs, 2017)
# Where a SMILES comes first, the peptide text is derived from it. Bridges are numbered along the chain shown (N, C = ends). Roman numbers before positions name the chains, in order.
# Legend:
# hα9α10 nAChR = hα9α10 nAChR (Homo sapiens, UniProt Q9GZZ6+Q9UGM1); assay: cell-based; type: cell-based
# hα3β2 nAChR = type: cell-based, human
# hα4β2 nAChR = type: cell-based, human
# hα3β4 nAChR = type: cell-based, human
# hα4β4 nAChR = type: cell-based, human
# hα7 nAChR = type: cell-based, human
# nAChR subtypes = type: cell-based, human; rodent
# Chain of hα9α10 nAChR (Q9UGM1 26-479 limits assumed): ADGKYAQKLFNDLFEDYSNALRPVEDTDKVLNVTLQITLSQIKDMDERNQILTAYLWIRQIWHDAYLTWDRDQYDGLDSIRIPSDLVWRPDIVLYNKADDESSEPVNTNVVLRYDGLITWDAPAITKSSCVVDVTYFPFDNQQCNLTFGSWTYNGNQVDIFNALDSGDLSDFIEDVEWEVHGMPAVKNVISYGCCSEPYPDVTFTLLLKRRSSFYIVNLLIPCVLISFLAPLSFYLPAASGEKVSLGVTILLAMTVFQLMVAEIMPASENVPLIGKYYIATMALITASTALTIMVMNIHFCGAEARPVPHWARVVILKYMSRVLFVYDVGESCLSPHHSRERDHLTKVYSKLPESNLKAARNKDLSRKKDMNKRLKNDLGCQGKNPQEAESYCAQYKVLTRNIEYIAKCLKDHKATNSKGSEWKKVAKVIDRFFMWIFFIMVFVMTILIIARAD
# Chain of hα9α10 nAChR (Q9GZZ6 25-450 limits assumed): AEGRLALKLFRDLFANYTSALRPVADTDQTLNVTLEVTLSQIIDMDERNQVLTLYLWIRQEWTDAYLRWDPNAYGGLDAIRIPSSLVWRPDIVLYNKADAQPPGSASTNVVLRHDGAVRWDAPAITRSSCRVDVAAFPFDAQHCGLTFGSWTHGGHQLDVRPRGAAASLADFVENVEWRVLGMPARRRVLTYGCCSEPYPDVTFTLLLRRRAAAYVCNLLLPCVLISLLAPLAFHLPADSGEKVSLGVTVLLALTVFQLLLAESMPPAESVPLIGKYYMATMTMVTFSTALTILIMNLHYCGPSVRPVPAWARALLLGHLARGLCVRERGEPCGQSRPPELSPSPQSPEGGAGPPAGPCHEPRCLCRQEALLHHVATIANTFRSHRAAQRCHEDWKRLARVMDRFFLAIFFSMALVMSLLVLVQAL
Compound,IC50 (hα9α10 nAChR),Hill Slope (nH) at hα9α10 (hα9α10 nAChR),reduction of ACh-evoked current amplitude at hα3β2 (hα3β2 nAChR),reduction of ACh-evoked current amplitude at hα4β2 (hα4β2 nAChR),effect on ACh-evoked currents of hα3β4 (hα3β4 nAChR),effect on ACh-evoked currents of hα4β4 (hα4β4 nAChR),effect on ACh-evoked currents of hα7 (hα7 nAChR),nAChR subtype preference (nAChR subtypes)
CC(C)[C@@H]1NC(=O)[C@H](CCCNC(=N)N)NC(=O)CNC(=O)[C@@H]2CCCN2C(=O)[C@H](CCCNC(=N)N)NC(=O)[C@H](C(C)C)NC(=O)[C@H](CO)NC(=O)[C@H](CCC(N)=O)NC(=O)[C@@H](N)CSSC[C@@H](C(=O)O)NC(=O)[C@H](CCCCN)NC(=O)CNC(=O)[C@H](Cc2c[nH]c3ccccc23)NC(=O)[C@H](C(C)C)NC(=O)[C@H](CCCNC(=N)N)NC(=O)CNC(=O)[C@@H]2CCCN2C(=O)[C@H](CCCNC(=N)N)NC(=O)[C@H](C(C)C)NC(=O)[C@H](CO)NC(=O)[C@H](CCC(N)=O)NC(=O)[C@@H]2CCCN2C(=O)CNC(=O)[C@@H]2CCCN2C(=O)[C@H](CCCCN)NC(=O)CNC(=O)[C@H](Cc2c[nH]c3ccccc23)NC1=O [cNTD] (H-CQSVRPGRVWGKPGPQSVRPGRVWGKC-OH; disulfide 1-27),2.66 µM,,,,,,,
"CC(C)C[C@H](NC(=O)[C@H](CO)NC(=O)[C@@H]1CSSC[C@H](NC(=O)[C@@H]2CCCN2C(=O)[C@H](CCCNC(=N)N)NC(=O)[C@H](Cc2c[nH]cn2)NC(=O)[C@@H](NC(=O)[C@@H](N)CC(=O)O)C(C)C)C(=O)N[C@@H](CCC(N)=O)C(=O)N[C@@H](CO)C(=O)N[C@@H](C(C)C)C(=O)N[C@@H](CCCNC(=N)N)C(=O)N2CCC[C@H]2C(=O)NCC(=O)N[C@@H](CCCNC(=N)N)C(=O)N[C@@H](C(C)C)C(=O)N[C@@H](Cc2c[nH]c3ccccc23)C(=O)NCC(=O)N[C@@H](CCCCN)C(=O)N[C@H](C(=O)N[C@@H](CO)C(=O)N[C@@H](CC(C)C)C(=O)O)CSSC[C@H](NC(=O)[C@@H]2CCCN2C(=O)[C@H](CCCNC(=N)N)NC(=O)[C@H](Cc2c[nH]cn2)NC(=O)[C@@H](NC(=O)[C@@H](N)CC(=O)O)C(C)C)C(=O)N[C@@H](CCC(N)=O)C(=O)N[C@@H](CO)C(=O)N[C@@H](C(C)C)C(=O)N[C@@H](CCCNC(=N)N)C(=O)N2CCC[C@H]2C(=O)NCC(=O)N[C@@H](CCCNC(=N)N)C(=O)N[C@@H](C(C)C)C(=O)N[C@@H](Cc2c[nH]c3ccccc23)C(=O)NCC(=O)N[C@@H](CCCCN)C(=O)N1)C(=O)O [NTD] (I: H-DVHRPCQSVRPGRVWGKCSL-OH / II: H-DVHRPCQSVRPGRVWGKCSL-OH; disulfide I:6-II:18, I:18-II:6)",,−0.9,approximately 50%,approximately 50%,not markedly affected,not markedly affected,not markedly affected,prefers β2-containing rather than β4-containing nAChR subtypes
